Common to all, as to assay: NCI anticancer screen, dose series, 48 h
Experiment [1] has as its system ACHN renal.
For experiment [2], the system named is CCRF-CEM leukemia.
For experiment [3], the system named is HOP-92 NSCLC.
Experiment [4] concerns HS 578T breast.
The test system of experiment [5] is MALME-3M melanoma.
Experiment [6] relates to NCI-H460 lung.
The test system of experiment [7] is NCI/ADR-RES ovarian.
For experiment [8], the system named is OVCAR-3 ovarian.
The test system of experiment [9] is OVCAR-4 ovarian.
The test system of experiment [10] is SK-MEL-28 melanoma.

Where “and” joins values, the source holds several entries; their conditions need not be identical. Equal entries are not always repeated.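 Exposure lasted 48 hours, with cells grown in 96-well plates and compounds tested at five concentrations. GI50 is the concentration that inhibits growth by half. Definition used: TGI = concentration required for complete inhibition of growth.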

As for `CCCCCCCCCCCCCCCCOCC(O)CO` (stereo not drawn), the TGI in [1] came to 33.6 µM; in experiment [2] it was 27.3 µM; in experiment [3], 41.9 µM; in experiment [4] it was 39.7 µM; in experiment [5] it was 36.1 µM; in experiment [6], 37.7 µM. The TGI in experiment [7] was found to be 34.7 µM; in experiment [8], 46.7 µM; in experiment [9], 46.1 µM; in experiment [10], 33.3 µM.
Consider `Cn1cc(NC(=O)Nc2cc(C(=O)Nc3cc(C(=O)Nc4cc(S(=O)(=O)O)c5cc(S(=O)(=O)O)cc(S(=O)(=O)O)c5c4)n(C)c3)n(C)c2)cc1C(=O)Nc1cc(C(=O)Nc2cc(S(=O)(=O)O)c3cc(S(=O)(=O)O)cc(S(=O)(=O)O)c3c2)n(C)c1`, for which the TGI in [1], in [2], in [3], in experiment [4], in experiment [5] and in experiment [6] was more than 100 µM each time. In addition, the TGI in experiment [7], in experiment [8], in [9] and in experiment [10] was more than 100 µM each time.
Take `Cn1cc(-c2nc(N[C@@H]3CCCC[C@@H]3N)c(F)c3c2C(=O)NC3)cn1`: the GI50 in experiment [1] was 3.08 µM and 4.65 µM; in experiment [2] it was 5.09 µM and 5.26 µM; in experiment [3], 3.62 µM and 4.47 µM; in [4], 5.95 µM and 6.14 µM; in experiment [5], 11 µM and 9.57 µM; in experiment [6] it was 5.87 µM and 6.08 µM. In addition, the GI50 in [7] is more than 100 µM; in experiment [8] it was 15.1 µM and 15.6 µM; in [9], 15.4 µM and 19.6 µM; in experiment [10], 8.96 µM and 10.8 µM. Also, the TGI in experiment [1] was more than 100 µM; in [2], more than 100 µM; in [3], 23.9 µM and 29.1 µM; in experiment [4], 71 µM and 57.2 µM; in experiment [5], 35.2 µM and 50.5 µM; in experiment [6], 63.2 µM and > 100 µM. The TGI was more than 100 µM in [7]; 42.1 µM and 38.7 µM in [8]; more than 100 µM in experiment [9]; more than 100 µM in [10].
Consider `COc1ccc(C(=O)c2cc3c(N)c(C(=O)Nc4cccc(OC)c4)sc3nc2C)cc1`, for which the GI50 in experiment [1] was 0.853 µM; in experiment [2] it was 0.363 µM; in experiment [3], 2.39 µM; in experiment [4], 0.546 µM; in experiment [5], 0.593 µM; in experiment [6], 0.741 µM. Moreover, the GI50 in experiment [7] is 0.515 µM; in [9], 3.01 µM; in experiment [10], more than 100 µM. Further, the TGI in experiment [1], in experiment [2], in experiment [3], in experiment [4], in experiment [5] and in experiment [6] was more than 100 µM each time. Moreover, the TGI in experiment [7], in experiment [9] and in experiment [10] was more than 100 µM in each case.
As to `O=C(c1ccc2ccccc2c1)c1c(C(F)(F)F)n([O-])c2ccc(F)cc2[n+]1=O`, the GI50 in [1] is 1.68 µM; in experiment [2] it was 1.6 µM; in experiment [3] it was 1.21 µM; in experiment [4], 1.98 µM; in experiment [5] it was 0.397 µM; in experiment [6], 1.83 µM. Moreover, the GI50 in experiment [7] is 2.1 µM; in [9] it was 1.67 µM; in [10], 1.68 µM. For the same compound, the TGI in experiment [1] came out at 3.04 µM; in [2], 5.26 µM; in experiment [3], 2.95 µM; in [4], 4.77 µM; in experiment [5], 2.3 µM; in [6], 3.68 µM. Also, the TGI in experiment [7] stood at 4.57 µM; in experiment [9] it was 3.22 µM; in [10], 3.18 µM.
In the case of `O=S(=O)(O)SCCNCCCCCC1CCCCC1`, the TGI was 30.3 µM in experiment [1]; more than 100 µM in experiment [2]; 39.9 µM in experiment [3]; 36.2 µM in [4]; 36.2 µM in experiment [5]; 9.16 µM in [6]. For the same compound, the TGI came out at 41.3 µM in experiment [7], 11.2 µM in [8], 32.3 µM in [9] and 18.3 µM in experiment [10].
For the compound `O=Cc1ccc(N2CCN(c3ccc(C=O)cc3)CC2)cc1`, the GI50 is more than 100 µM in experiment [1]; more than 100 µM in experiment [2]; more than 100 µM in [3]; more than 100 µM in experiment [4]; 0.565 µM in [5]; 77.2 µM in [6]. Further, the GI50 was more than 100 µM in experiment [7], more than 100 µM in [8], 5.68 µM in [9] and more than 100 µM in experiment [10]. The TGI in experiment [1], in experiment [2], in [3], in experiment [4], in experiment [5] and in experiment [6] was more than 100 µM each time. The TGI in experiment [7], in [8], in [9] and in [10] was more than 100 µM each time.
`Cc1cc2nc3c4ccc(Br)cc4n(CCN(C)C)c3nc2cc1C`: the GI50 in [1] is 0.459 µM; in experiment [2] it was 1.5 µM; in experiment [3] it was 1.3 µM; in experiment [4], 2.06 µM; in experiment [5], 1.44 µM; in [6], 1.26 µM. For the same compound, the GI50 in experiment [7] is 0.609 µM; in experiment [8], 2.04 µM; in experiment [9], 1.62 µM; in experiment [10], 1.69 µM. Besides, the TGI in experiment [1] amounted to 2.23 µM; in experiment [2] it was 10.5 µM; in experiment [3], 5.28 µM; in experiment [4] it was 6.38 µM; in experiment [5], 2.92 µM; in [6], 3.95 µM. Moreover, the TGI in [7] was determined as 4.69 µM; in experiment [8], 6.96 µM; in experiment [9], 7.49 µM; in experiment [10], 3.12 µM.
`O=C(O)CCc1nc(-c2ccccc2-n2cccc2)no1`: the TGI in experiment [1], in experiment [3], in experiment [4], in [5], in experiment [6] and in [7] was more than 100 µM in each case. For the same compound, the TGI in [8] is 86.3 µM; in experiment [9], more than 100 µM; in experiment [10] it was more than 100 µM.
As to `CCCCCCCCCCSC(=N)N`, the GI50 in experiment [1] was 2.82 µM; in experiment [3] it was 1.42 µM; in experiment [4] it was 2.93 µM; in experiment [5], 2.32 µM; in [6], 2.02 µM; in experiment [7], 4.8 µM. In addition, the values for the GI50 in experiment [8], in experiment [9] and in experiment [10] were 3.71 µM, 3.58 µM and 3.67 µM, respectively. Besides, the TGI was 9.33 µM in experiment [1]; 4.59 µM in experiment [3]; 12.5 µM in experiment [4]; 6.59 µM in [5]; 4.68 µM in [6]; 22.3 µM in experiment [7]. Besides, the TGI in experiment [8] was found to be 13.8 µM; in [9], 17.6 µM; in [10] it was 14.1 µM.

The values are drawn from PubChem BioAssay (NCI).
